Entries after “also recorded” stand apart in the source; their conditions may differ.
Tested on: PolyA HIV RNA in the supernatant
Assay: Supernatant viral RNA (polyadenylated HIV RNA, RT-ddPCR) at day 6 after T cell activation
Assay type: cell-based
Details: for Polyadenylated HIV RNA in supernatant (Fig 5, Fig S6B) / Polyadenylated HIV RNA in supernatant (Fig 5): day 6; for Viral RNA in supernatant (PolyA HIV RNA), median relative to activated DMSO: day 6 after anti-CD3/CD28 activation, Figure 5
Experimental: PBMCs were cultured in the presence of individual drugs in DMSO or DMSO alone as control, activated (anti-CD3/CD28), and assessed for levels of PolyA HIV RNA in the supernatant at day 6.
Each drug was tested in PBMCs from 6 ART-suppressed study participants (except for triptolide, n = 5). PBMCs were aliquoted into wells at 6 × 10^6 cells/well. After activation, the cells were cultured with antiretrovirals in the presence of individual drugs in DMSO or DMSO alone as control. All conditions were tested in the presence of CD3/28 T cell–activating beads, except for the unactivated DMSO condition. After 6 days, RNA was extracted from the culture supernatant. Polyadenylated HIV RNA in the supernatant was quantified by RT-ddPCR, expressed as copies/mL, and then normalized to the levels of the activated DMSO (% of activated DMSO). Medians and IQR are presented, as well as the individual values per study participant in different colors. Comparisons were performed using Wilcoxon’s signed-rank test.
For quantification of cell-associated HIV transcripts, PBMCs were harvested either after 24 hours or after 6 days. The cell viabilities were measured by trypan blue staining; then the cells were pelleted by centrifuging at 300g for 6 minutes and stored at –80°C. For quantification of virion-associated HIV RNA, cell culture supernatant was collected from 6 × 10^6 PBMCs that were treated and activated for 6 days as described above. Residual cells and cellular debris were subsequently removed from the supernatant by differential centrifugation (300g for 6 minutes, then 20,000g for 10 minutes), and the supernatant was stored at –80°C.
Total cellular DNA and RNA were extracted in parallel using Trireagent (Molecular Research Center) according to the manufacturer’s instructions, except for study participants 2147 and 2461 (Figure 4), for whom DNA and RNA were extracted using the QIAGEN AllPrep DNA/RNA/miRNA Universal Kit with on-column DNase I treatment of the RNA and the manufacturer’s modification to enhance recovery of short transcripts. RNA and DNA concentrations were measured using UV spectrophotometry (NanoDrop One, Thermo Fisher Scientific). Total initiated HIV (TAR) transcripts were quantified by a 3-step polyadenylation RT-ddPCR as described previously ([8], [84]). HIV 5′ elongated (LLTR), midtranscribed (Pol), completed (PolyA), and multiply spliced (TatRev) transcripts were quantified by a 2-step RT-ddPCR as previously described ([8]). The levels of each HIV transcript were normalized to 1 μg of total cellular RNA and expressed as a percentage of the (activated) DMSO control. To quantify virion-associated RNA in supernatant, RNA was extracted from 400 μL supernatant using Trireagent-LS (Molecular Research Center) according to the manufacturer’s instructions. Levels of U3-polyadenylated HIV RNA were measured in the supernatant by RT-ddPCR, normalized to copies/mL, and expressed as a percentage of the activated DMSO. For measuring the HIV infection frequency at day 6, the HIV DNA U3-U5 LTR region was quantified by using ddPCR as described previously ([8]). HIV DNA copies were normalized to cell numbers according to the mass of DNA input per well (calculated from the DNA concentration and input volume) ([85]).

Compound	Polyadenylated HIV RNA in supernatant (Fig 5, Fig S6B) (study participant 150b)	Polyadenylated HIV RNA in supernatant (Fig 5) (study participant 2027)	Polyadenylated HIV RNA in supernatant (Fig 5) (study participant 2147b)	Polyadenylated HIV RNA in supernatant (Fig 5) (study participant 2161)	Polyadenylated HIV RNA in supernatant (Fig 5) (study participant 2256)	Polyadenylated HIV RNA in supernatant (Fig 5) (study participant 5557)	Viral RNA in supernatant (PolyA HIV RNA), median relative to activated DMSO	Polyadenylated HIV RNA in supernatant (Fig 5) (study participant 150a)	Polyadenylated HIV RNA in supernatant (Fig 5) (study participant 156)	Polyadenylated HIV RNA in supernatant (Fig 5) (study participant 163)	Polyadenylated HIV RNA in supernatant (Fig 5) (study participant 2747)	Polyadenylated HIV RNA in supernatant (Fig 5) (study participant 2750)	Polyadenylated HIV RNA in supernatant (Fig 5, Fig S6B) (study participant 1713)
COc1ccc(-c2cc(=O)c3c(O)cc(O)c(-c4cc(-c5cc(=O)c6c(O)cc(O)cc6o5)ccc4OC)c3o2)cc1 [isoginkgetin]	303.03 % of activated DMSO	8.41 % of activated DMSO	63.16 % of activated DMSO	0 % of activated DMSO	4.84 % of activated DMSO	39.4 % of activated DMSO	–	–	–	–	–	–	–
CO[C@H]([C@@H](C)[C@H]1O[C@]1(C)C[C@H](C)/C=C/C=C(\C)[C@H]1O[C@@H](CC(=O)O)CC[C@@H]1C)[C@@H](C)O [herboxidiene]	67.27 % of activated DMSO	240.24 % of activated DMSO	0 % of activated DMSO	4.65 % of activated DMSO	1.61 % of activated DMSO	42.05 % of activated DMSO	tended to reduce	–	–	–	–	–	–
pladienolide B	–	63.66 % of activated DMSO	0 % of activated DMSO	0 % of activated DMSO	–	–	3.8%	17.33 % of activated DMSO	7.61 % of activated DMSO	15.15 % of activated DMSO	0 % of activated DMSO	0 % of activated DMSO	–
N#CC[C@H](C1CCCC1)n1cc(-c2ncnc3[nH]ccc23)cn1 [ruxolitinib]	–	0 % of activated DMSO	0 % of activated DMSO	5.81 % of activated DMSO	–	–	–	6.55 % of activated DMSO	0 % of activated DMSO	0.53 % of activated DMSO	0 % of activated DMSO	0 % of activated DMSO	–
O=c1c(O)c(-c2ccc(O)c(O)c2)oc2cc(O)cc(O)c12 [quercetin]	315.15 % of activated DMSO	20.42 % of activated DMSO	8.6 % of activated DMSO	4.65 % of activated DMSO	134.41 % of activated DMSO	–	–	–	–	85.4 % of activated DMSO	9.09 % of activated DMSO	–	–
CC(C)[C@]12O[C@H]1[C@@H]1O[C@]13[C@]1(O[C@H]1C[C@H]1C4=C(CC[C@@]13C)C(=O)OC4)[C@@H]2O [triptolide]	0 % of activated DMSO	–	0 % of activated DMSO	–	2.15 % of activated DMSO	0 % of activated DMSO	0.0%	–	–	–	–	0 % of activated DMSO	–
C=CCNC1=C2C[C@@H](C)C[C@H](OC)[C@H](O)[C@@H](C)/C=C(\C)[C@H](OC(N)=O)[C@@H](OC)/C=C\C=C(/C)C(=O)NC(=CC1=O)C2=O [tanespimycin]	0 % of activated DMSO	–	0 % of activated DMSO	–	2.15 % of activated DMSO	0 % of activated DMSO	–	–	–	–	–	0 % of activated DMSO	0 % of activated DMSO
CNc1ccc([N+](=O)[O-])c(Nc2ccc3[nH]ncc3c2)n1 [KRIBB11]	–	444.44 % of activated DMSO	47.37 % of activated DMSO	–	93.55 % of activated DMSO	–	did not inhibit	72.41 % of activated DMSO	18.79 % of activated DMSO	90.15 % of activated DMSO	72.27 % of activated DMSO	–	–
CN1CC[C@H](c2c(O)cc(O)c3c(=O)cc(-c4ccccc4Cl)oc23)[C@H](O)C1 [alvocidib]	81.21 % of activated DMSO	504.5 % of activated DMSO	0 % of activated DMSO	41.86 % of activated DMSO	81.72 % of activated DMSO	155.63 % of activated DMSO	–	–	–	–	–	–	–
CC(=O)N[C@@H]1CCC[C@H](C(=O)Nc2cc(-c3cnn4c3CC(C)(C)C4)c(Cl)cn2)C1 [AZD4573]	–	0 % of activated DMSO	0.7 % of activated DMSO	0 % of activated DMSO	–	–	1.9%	27.84 % of activated DMSO	3.19 % of activated DMSO	90.51 % of activated DMSO	17.73 % of activated DMSO	0 % of activated DMSO	–
mithramycin A	2.42 % of activated DMSO	–	0 % of activated DMSO	–	2.15 % of activated DMSO	0 % of activated DMSO	tended to reduce; also recorded: inhibited the production of viral RNA in supernatant in 5 out of 6 study participants	–	–	–	–	–	2.06 % of activated DMSO
CCc1cnn2c(NCc3ccc[n+]([O-])c3)cc(N3CCCC[C@H]3CCO)nc12 [dinaciclib]	11.52 % of activated DMSO	0 % of activated DMSO	0 % of activated DMSO	4.65 % of activated DMSO	–	–	–	–	0 % of activated DMSO	133.94 % of activated DMSO	23.64 % of activated DMSO	–	–
